Data reported in ChEMBL document CHEMBL3751805, “Novel Tacrine-Benzofuran Hybrids as Potent Multitarget-Directed Ligands for the Treatment of Alzheimer's Disease: Design, Synthesis, Biological Evaluation, and X-ray Crystallography” (J Med Chem, 2016).
Calls of active or inactive are those of the source. No cut-off for these calls is given here.

How the values were obtained:
[1] = biological target: Cholinesterase (Homo sapiens, UniProt P06276)
Description: Inhibition of human serum BChE using butyrylthiocholine iodide as substrate preincubated for 20 mins followed by substrate addition by Ellman's method

[2] = biological target: T1, Acetylcholinesterase (Homo sapiens, UniProt P22303)
Description: Inhibition of recombinant human AChE using acetylthiocholine iodide as substrate preincubated for 20 mins followed by substrate addition by Ellman's method

[3] = biological target: T2, Amyloid-beta precursor protein (Homo sapiens, UniProt P05067); conditions: at 10 µM
Description: Inhibition of HFIP pretreated Amyloid beta (1 to 42) (unknown origin) self-induced aggregation at 10 uM incubated for 24 hrs by Thioflavin T-based fluorometric assay

[4] = biological target: T3, Beta-secretase 1 (Homo sapiens, UniProt P56817); assay: Inhibition of BACE-1 (unknown origin) using M-2420 as substrate preincubated for 1 hr followed by substrate addition measured after 15 mins by FRET assay
[5] = biological target: T3, Beta-secretase 1
Description: Inhibition of recombinant human BACE-1 using M-2420 as substrate preincubated for 1 hr followed by substrate addition measured after 15 mins by FRET assay

[6] = tested on: SH-SY5Y; assay: Cytotoxicity against human SH-SY5Y cells assessed as reduction in cell viability at 3 to 30 uM after 48 hrs by MTT assay; type: cell-based
[7] = tested on: Mus musculus; assay: Hepatotoxicity in ICR mouse assessed as elevation in serum alanine aminotransferase level dosed ig at equimolar dose of 30 mg/kg tacrine after 8 hrs by spectrophotometry analysis relative to control; type: toxicity, organism-based; conditions: in vivo, po
[8] = tested on: Mus musculus; type: toxicity, organism-based, ICR; conditions: in vivo, po, 30 mg/kg, 36 h
[9] = biological target: Acetylcholinesterase (Torpedo californica) (UniProt P04058); conditions: Tetronarce californica; 1 to 10 nM
[10] = biological target: Acetylcholinesterase (Torpedo californica) (UniProt P04058); conditions: Tetronarce californica; 0.3 nM
[11] = biological target: T1, Acetylcholinesterase; assay: Mixed-type inhibition of recombinant human AChE using acetylthiocholine iodide as substrate assessed as enzyme-inhibitor complex by Lineweaver-Burk double reciprocal plot method
[12] = tested on: Mus musculus; assay: Hepatotoxicity in ICR mouse assessed as serum aspartate aminotransferase level dosed ig at equimolar dose of 30 mg/kg tacrine after 22 hrs by spectrophotometry analysis (reference value: […] +/- 31.1 U/L); type: toxicity, organism-based; conditions: in vivo, po
[13] = tested on: Mus musculus; assay: Hepatotoxicity in ICR mouse assessed as serum alanine aminotransferase level dosed ig at equimolar dose of 30 mg/kg tacrine after 36 hrs by spectrophotometry analysis (reference value: 38.1 +/- 8.2 U/L); type: toxicity, organism-based; conditions: in vivo, po
[14] = biological target: T1, Acetylcholinesterase; assay: Mixed-type inhibition of recombinant human AChE using acetylthiocholine iodide as substrate assessed as enzyme-substrate-inhibitor complex by Lineweaver-Burk double reciprocal plot method
[15] = tested on: Mus musculus; assay: Hepatotoxicity in ICR mouse assessed as serum alanine aminotransferase level dosed ig at equimolar dose of 30 mg/kg tacrine after 22 hrs by spectrophotometry analysis (reference value: 40.1 +/- 9.9 U/L); type: toxicity, organism-based; conditions: in vivo, po
[16] = in vitro; conditions: human, SH-SY5Y cells
Description: Cytotoxicity against human SH-SY5Y cells assessed as cell viability at 30 uM after 48 hrs by MTT assay

[17] = biological target: T4, Acetylcholinesterase (Torpedo californica, UniProt P04058); assay: Competitive inhibition of Torpedo californica AChE using ATCh as substrate preincubated for 90 mins followed by substrate addition by potentiometric titration method; design: species or system Tetronarce californica
[18] = biological target: T4, Acetylcholinesterase; assay: Noncompetitive inhibition of Torpedo californica AChE using ATCh as substrate assessed as dissociation rate constant preincubated for 90 mins followed by substrate addition by potentiometric titration method; design: species or system Tetronarce californica
[19] = tested on: Mus musculus; type: toxicity, organism-based, ICR; conditions: in vivo, po, 30 mg/kg, 8 h
[20] = tested on: Mus musculus; assay: Hepatotoxicity in ICR mouse assessed as serum aspartate aminotransferase level dosed ig at equimolar dose of 30 mg/kg tacrine after 8 hrs by spectrophotometry analysis (reference value: 113.3 +/- 30 U/L); type: toxicity, organism-based; conditions: in vivo, po
[21] = tested on: Mus musculus; assay: Hepatotoxicity in ICR mouse assessed as elevation in serum aspartate aminotransferase level dosed ig at equimolar dose of 30 mg/kg tacrine after 8 hrs by spectrophotometry analysis relative to control; type: toxicity, organism-based; conditions: in vivo, po
[22] = biological target: T4, Acetylcholinesterase; assay: Competitive inhibition of Torpedo californica AChE using ATCh as substrate assessed as dissociation rate constant preincubated for 90 mins followed by substrate addition by potentiometric titration method; design: species or system Tetronarce californica
[23] = biological target: T4, Acetylcholinesterase; assay: Noncompetitive inhibition of Torpedo californica AChE using ATCh as substrate preincubated for 90 mins followed by substrate addition by potentiometric titration method; design: species or system Tetronarce californica
[24] = biological target: Acetylcholinesterase (Torpedo californica) (UniProt P04058); conditions: Tetronarce californica
Description: Noncompetitive inhibition of Torpedo californica AChE using ATCh as substrate assessed as second order association constant preincubated for 90 mins followed by substrate addition by potentiometric titration method

[25] = biological target: Acetylcholinesterase (Torpedo californica) (UniProt P04058); conditions: Tetronarce californica; remark: listed apart in the source
Description: Competitive inhibition of Torpedo californica AChE using ATCh as substrate assessed as second order association constant preincubated for 90 mins followed by substrate addition by potentiometric titration method

[26] = biological target: T2, Amyloid-beta precursor protein; assay: Inhibition of Amyloid beta (1 to 42) (unknown origin) self-induced aggregation incubated for 24 hrs by Thioflavin T-based fluorometric assay

T3 sequence (P56817 whole entry): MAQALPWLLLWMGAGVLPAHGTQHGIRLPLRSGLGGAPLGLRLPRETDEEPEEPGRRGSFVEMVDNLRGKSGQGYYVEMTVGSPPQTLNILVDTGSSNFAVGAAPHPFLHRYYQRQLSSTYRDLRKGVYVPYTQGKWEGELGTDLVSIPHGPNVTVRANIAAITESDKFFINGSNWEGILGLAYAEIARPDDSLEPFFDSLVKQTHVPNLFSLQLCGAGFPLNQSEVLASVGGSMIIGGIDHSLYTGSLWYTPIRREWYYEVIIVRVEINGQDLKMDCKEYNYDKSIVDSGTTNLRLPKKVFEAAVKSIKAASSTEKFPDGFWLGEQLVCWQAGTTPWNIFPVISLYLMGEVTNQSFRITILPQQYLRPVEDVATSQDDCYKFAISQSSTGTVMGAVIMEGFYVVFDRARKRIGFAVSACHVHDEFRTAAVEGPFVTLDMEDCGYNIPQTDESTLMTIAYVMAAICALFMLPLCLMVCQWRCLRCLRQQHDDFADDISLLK
Chain of Acetylcholinesterase (Torpedo californica) (P04058 22-564 limits assumed): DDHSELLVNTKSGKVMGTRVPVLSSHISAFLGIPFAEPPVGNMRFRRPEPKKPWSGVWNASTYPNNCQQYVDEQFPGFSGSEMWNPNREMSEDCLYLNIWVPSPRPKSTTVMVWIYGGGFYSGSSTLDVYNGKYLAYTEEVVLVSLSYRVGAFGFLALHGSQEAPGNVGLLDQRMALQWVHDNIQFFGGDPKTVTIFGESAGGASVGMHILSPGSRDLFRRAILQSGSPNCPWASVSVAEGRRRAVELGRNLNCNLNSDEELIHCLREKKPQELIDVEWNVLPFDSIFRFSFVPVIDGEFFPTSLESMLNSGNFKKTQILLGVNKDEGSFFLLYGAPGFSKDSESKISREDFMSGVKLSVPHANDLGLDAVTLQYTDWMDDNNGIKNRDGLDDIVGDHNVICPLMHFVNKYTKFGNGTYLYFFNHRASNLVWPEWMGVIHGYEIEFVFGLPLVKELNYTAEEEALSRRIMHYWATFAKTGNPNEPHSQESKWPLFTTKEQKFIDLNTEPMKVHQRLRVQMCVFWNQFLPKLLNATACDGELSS
Chain of Cholinesterase (P06276 whole entry): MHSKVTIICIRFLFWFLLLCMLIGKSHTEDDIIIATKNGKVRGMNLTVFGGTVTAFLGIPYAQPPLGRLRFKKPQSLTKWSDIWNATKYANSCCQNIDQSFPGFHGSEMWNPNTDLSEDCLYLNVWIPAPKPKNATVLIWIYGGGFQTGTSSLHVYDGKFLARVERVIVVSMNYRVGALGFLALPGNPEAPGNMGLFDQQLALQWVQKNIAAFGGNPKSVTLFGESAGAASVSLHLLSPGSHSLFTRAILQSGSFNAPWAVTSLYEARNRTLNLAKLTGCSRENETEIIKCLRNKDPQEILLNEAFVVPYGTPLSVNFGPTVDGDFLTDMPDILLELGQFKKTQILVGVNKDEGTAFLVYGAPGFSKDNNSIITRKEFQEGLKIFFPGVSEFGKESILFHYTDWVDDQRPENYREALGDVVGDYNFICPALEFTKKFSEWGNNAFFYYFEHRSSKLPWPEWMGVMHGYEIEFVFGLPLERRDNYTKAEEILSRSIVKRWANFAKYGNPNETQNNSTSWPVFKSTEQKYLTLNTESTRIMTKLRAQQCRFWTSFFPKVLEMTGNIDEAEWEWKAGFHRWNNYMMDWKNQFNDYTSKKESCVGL
T4 sequence (P04058 whole entry): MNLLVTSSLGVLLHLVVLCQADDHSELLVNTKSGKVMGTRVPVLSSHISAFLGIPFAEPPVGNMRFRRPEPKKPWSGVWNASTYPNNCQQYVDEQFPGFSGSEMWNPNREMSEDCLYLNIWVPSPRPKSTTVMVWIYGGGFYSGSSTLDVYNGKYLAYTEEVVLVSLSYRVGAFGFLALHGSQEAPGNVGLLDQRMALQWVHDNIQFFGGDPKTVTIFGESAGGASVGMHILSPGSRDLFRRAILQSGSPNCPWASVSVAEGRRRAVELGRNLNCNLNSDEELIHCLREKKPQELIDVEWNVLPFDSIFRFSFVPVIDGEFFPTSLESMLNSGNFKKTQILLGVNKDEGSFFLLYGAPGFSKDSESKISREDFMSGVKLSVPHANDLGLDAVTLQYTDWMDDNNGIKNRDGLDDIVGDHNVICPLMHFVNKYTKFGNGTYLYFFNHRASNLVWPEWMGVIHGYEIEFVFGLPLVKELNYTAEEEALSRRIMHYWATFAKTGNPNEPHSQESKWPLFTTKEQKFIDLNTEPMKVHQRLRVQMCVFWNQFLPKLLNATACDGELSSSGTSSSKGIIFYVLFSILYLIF
T1 sequence (P22303 whole entry): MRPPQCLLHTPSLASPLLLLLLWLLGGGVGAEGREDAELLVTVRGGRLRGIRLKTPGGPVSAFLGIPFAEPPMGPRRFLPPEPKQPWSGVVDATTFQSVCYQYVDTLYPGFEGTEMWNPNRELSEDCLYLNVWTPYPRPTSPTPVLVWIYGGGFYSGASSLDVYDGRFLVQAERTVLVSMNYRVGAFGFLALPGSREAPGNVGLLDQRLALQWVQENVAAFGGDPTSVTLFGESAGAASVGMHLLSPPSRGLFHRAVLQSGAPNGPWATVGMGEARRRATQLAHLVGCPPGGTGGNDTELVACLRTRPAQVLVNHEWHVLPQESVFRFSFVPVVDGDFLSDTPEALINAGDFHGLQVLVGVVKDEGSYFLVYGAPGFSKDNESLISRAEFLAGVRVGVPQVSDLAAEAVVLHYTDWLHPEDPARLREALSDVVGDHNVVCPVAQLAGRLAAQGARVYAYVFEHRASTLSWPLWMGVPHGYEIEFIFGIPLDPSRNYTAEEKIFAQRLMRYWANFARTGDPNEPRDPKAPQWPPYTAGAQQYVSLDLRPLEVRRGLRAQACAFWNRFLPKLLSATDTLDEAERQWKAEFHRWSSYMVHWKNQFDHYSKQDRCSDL
T2 sequence (P05067 whole entry): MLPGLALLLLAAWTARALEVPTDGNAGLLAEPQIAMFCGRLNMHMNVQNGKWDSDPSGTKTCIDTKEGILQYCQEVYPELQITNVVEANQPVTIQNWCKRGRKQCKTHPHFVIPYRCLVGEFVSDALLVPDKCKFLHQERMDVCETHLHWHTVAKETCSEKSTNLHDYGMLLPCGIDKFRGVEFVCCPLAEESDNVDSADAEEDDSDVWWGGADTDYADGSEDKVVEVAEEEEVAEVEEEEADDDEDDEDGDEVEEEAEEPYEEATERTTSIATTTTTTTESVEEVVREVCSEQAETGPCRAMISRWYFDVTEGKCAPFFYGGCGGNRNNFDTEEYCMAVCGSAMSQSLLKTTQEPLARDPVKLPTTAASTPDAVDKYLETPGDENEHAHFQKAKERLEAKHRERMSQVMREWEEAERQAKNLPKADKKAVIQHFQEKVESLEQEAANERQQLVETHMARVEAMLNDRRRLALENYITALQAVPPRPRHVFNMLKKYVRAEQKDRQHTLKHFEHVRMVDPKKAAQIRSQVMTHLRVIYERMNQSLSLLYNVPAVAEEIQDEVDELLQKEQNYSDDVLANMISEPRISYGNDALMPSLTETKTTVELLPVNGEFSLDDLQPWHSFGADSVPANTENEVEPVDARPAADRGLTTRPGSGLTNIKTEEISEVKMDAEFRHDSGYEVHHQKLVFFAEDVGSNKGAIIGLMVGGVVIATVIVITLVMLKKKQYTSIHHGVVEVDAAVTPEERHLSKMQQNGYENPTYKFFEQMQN

| Compound | IC50 [1] [nM] | IC50 [2] [nM] | inhibition [3] [%] | other results |
| --- | --- | --- | --- | --- |
| COc1cccc2cc(CNCCCCCCCNc3c4c(nc5ccccc35)CCCCC4)oc12 | 1.23 | 2.56 | 31.9 | – |
| O=C(NCCCCCCNc1c2c(nc3ccccc13)CCCC2)c1cc2ccccc2o1 | 4.68 | 424 | 13.7 | – |
| NC1=NC(c2ccc(F)cc2)NC(=O)N1 (stereo unspecified) | – | – | – | IC50 [4]: 18000 nM |
| c1ccc2oc(CN(CCCCCCCNc3c4c(nc5ccccc35)CCCC4)Cc3cc4ccccc4o3)cc2c1 | 6.86 | 117 | 44.5 | IC50 [5]: 620 nM |
| COc1cccc2cc(C(=O)NCCCCCCCNc3c4c(nc5ccccc35)CCC4)oc12 | 26.1 | 993 | 19.6 | – |
| c1ccc2oc(CNCCCCCCCNc3c4c(nc5ccccc35)CCC4)cc2c1 | 2.54 | 10.8 | 76.2 | – |
| COc1cccc2cc(CN(CCCCCCNc3c4c(nc5ccccc35)CCC4)Cc3cc4cccc(OC)c4o3)oc12 | 2.3 | 7490 | 38.5 | – |
| O=C(NCCCCCCNc1c2c(nc3ccccc13)CCC2)c1cc2ccccc2o1 | 15.7 | 545 | 18.7 | – |
| COc1cccc2cc(CN(CCCCCCNc3c4c(nc5ccccc35)CCCC4)Cc3cc4cccc(OC)c4o3)oc12 | 0.48 | 260 | 44.6 | Activity [6]: Toxic; IC50 [5]: 190 nM |
| COc1cccc2cc(C(=O)NCCCCCCNc3c4c(nc5ccccc35)CCCC4)oc12 | 10.2 | 24.4 | 40.2 | – |
| COc1cccc2cc(CN(CCCCCCNc3c4c(nc5ccccc35)CCCCC4)Cc3cc4cccc(OC)c4o3)oc12 | 2.35 | 1040 | 25 | – |
| COc1cccc2cc(C(=O)NCCCCCCNc3c4c(nc5ccccc35)CCC4)oc12 | 80.6 | 1680 | 32.6 | – |
| c1ccc2oc(CNCCCCCCCNc3c4c(nc5ccccc35)CCCC4)cc2c1 | 2.18 | 0.86 | 61.3 | fold change (FC) [7]: 1.16; Activity [8]: 114.7 U/L; inhibition [9]: Active; inhibition [10]: Active; Ki [11]: 0.72 nM; Activity [12]: 134.5 U/L; Activity [13]: 42 U/L; Ki [14]: 1.04 nM; Activity [15]: 48.2 U/L; IC50 [5]: 1350 nM; viability at 48 h, 30 µM [16]: 63%; Ki [17]: 2.2 nM; Kd [18]: 0.031 s⁻¹; Activity [19]: 45.1 U/L; Activity [20]: 138.3 U/L; fold change (FC) [21]: 1.22; Kd [22]: 0.032 s⁻¹; Ki [23]: 2.1 nM; Ka [24]: 1.45 ×10⁷ /M/s; Ka [25]: 1.45 ×10⁷ /M/s |
| COc1cccc2cc(CNCCCCCCNc3c4c(nc5ccccc35)CCCC4)oc12 | 0.49 | 15.3 | 52 | – |
| O=C(NCCCCCCCNc1c2c(nc3ccccc13)CCC2)c1cc2ccccc2o1 | 30.9 | 48.6 | 10.2 | – |
| O=C(NCCCCCCNc1c2c(nc3ccccc13)CCCCC2)c1cc2ccccc2o1 | 10.8 | 308 | 24.2 | – |
| c1ccc2oc(CN(CCCCCCCNc3c4c(nc5ccccc35)CCCCC4)Cc3cc4ccccc4o3)cc2c1 | 17.9 | 200 | 39.8 | – |
| c1ccc2oc(CN(CCCCCCCNc3c4c(nc5ccccc35)CCC4)Cc3cc4ccccc4o3)cc2c1 | 12.8 | 222 | 30.7 | – |
| COc1cccc2cc(CNCCCCCCNc3c4c(nc5ccccc35)CCC4)oc12 | 1.3 | 63.1 | 64.1 | – |
| O=C(NCCCCCCCNc1c2c(nc3ccccc13)CCCC2)c1cc2ccccc2o1 | 6.9 | 76.9 | 26.2 | Activity [6]: Toxic |
| COc1cccc2cc(CN(CCCCCCCNc3c4c(nc5ccccc35)CCCCC4)Cc3cc4cccc(OC)c4o3)oc12 | 4.87 | 199 | 37.3 | – |
| c1ccc2oc(CN(CCCCCCNc3c4c(nc5ccccc35)CCC4)Cc3cc4ccccc4o3)cc2c1 | 8.89 | 2070 | 62.2 | – |
| c1ccc2c(NCCCCCCCNc3c4c(nc5ccccc35)CCCC4)c3c(nc2c1)CCCC3 | – | – | 50.1 | IC50 [26]: 8400 nM |
| COc1cccc2cc(C(=O)NCCCCCCCNc3c4c(nc5ccccc35)CCCCC4)oc12 | 31.9 | 416 | 17.7 | – |
| COc1cccc2cc(C(=O)NCCCCCCNc3c4c(nc5ccccc35)CCCCC4)oc12 | 30 | 32.3 | 18.7 | – |
| c1ccc2oc(CNCCCCCCNc3c4c(nc5ccccc35)CCC4)cc2c1 | 2.48 | 47 | 9.3 | – |
| COc1cccc2cc(C(=O)NCCCCCCCNc3c4c(nc5ccccc35)CCCC4)oc12 | 7.35 | 44.2 | 42.5 | IC50 [5]: 430 nM |
| O=C(NCCCCCCCNc1c2c(nc3ccccc13)CCCCC2)c1cc2ccccc2o1 | 11.6 | 323 | 17.3 | – |
